Assay results reported in US4089974A, “5-Carboxy-phenylenebis(carbonylimino)benzene carboxylic and dicarboxylic acids and salts” (American Cyanamid Company, priority 1977, dated 1978).
Structures can show the parent of a compound that is named as a salt.

Legend:
complement system = conditions: cited from earlier work; for anticomplementary effect: British Journal of Experimental Pathology, 33, 327-339 (1952)
[1] = test system: hereditary angioneurotic edema; conditions: The New England Journal of Medicine, 286, 808-812 (1972); cited from earlier work
[2] = test system: Citrated sheep plasma (CSP); assay: in vitro anti-coagulant activity (AC), citrated sheep plasma clotting; type: biochemical
Method: The sheep RBC's, kept in suspension throughout the clotting incubation time, become enmeshed in the fibrin matrix if a clots forms. Upon centrifugation of the plate, untrapped RBC's form buttons, the sizes of which correspond to the degree of clot inhibition; this providing a measure of anti-coagulant activity (AC). Sodium heparin is used as a positive control and activity is reported in wells appearing in Table I.

human C1 = assay: Test, Code 026 (C1 inhibitor); type: biochemical
Text: An active inhibitor protects C2 from C1 and C4; (ii) Test, Code 035 (C3-C9 inhibitor) -- This test determines the ability of the late components of human complement (C3-C9) to lyse EAC 142 in the presence of appropriate dilutions of the test compound. An active inhibitor protects EAC 142 from lysis by human C3-C9; (iii) Test, Code 036 (C-Shunt inhibitor) -- In this test human erythrocytes rendered fragile are lysed in autologous serum via the shunt pathway activated by cobra venom factor in the presence of appropriate dilutions of the test compound. Inhibition of the shunt pathway results in failure of lysis; (iv) Forssman Vasculitis Test -- Here, the well known complement dependent lesion, Forssman vasculitis, is produced in guinea pigs by intradermal injection of rabbit anti-Forssman antiserum. […]

[3] = Intrinsic Therapeutic Index (Code 026 versus AC); conditions: Table II
Text: The computation of an Intrinsic Therapeutic Index (ITI) was devised to correlate the results, expressed in wells, obtained in the in vitro Code 026 (C1 inhibitor) test and the in vitro anti-coagulant (AC) test into a meaningful value which would aid in the net evaluation of the activity of the compounds of this invention.
The ITI of a given compound may be defined as the antilogarithm of the logarithmic (base 2) difference between the highest serial dilution in wells which is active in the Code 026 test and the highest serial dilution in wells providing activity in the anti-coagulant test. The ITI is thus a measure of the separation of anti-complement and anti-coagulant activities; the higher the numerical value the more therapeutically useful the separation of activities.

## Nc1ccc2cc(S(=O)(=O)O)cc(O)c2c1N=Nc1ccc(NC(=O)Nc2ccc(N=Nc3c(N)ccc4cc(S(=O)(=O)O)cc(O)c34)c(S(=O)(=O)O)c2)cc1S(=O)(=O)O [chlorazol fast pink, 3,3'-ureylenebis-[6-(2-amino-8-hydroxy-6-sulfo-1-naphthylazo)]benzenesulfonic acid, tetrasodium salt]
Complement system
  anticomplementary effect: reported to have an anticomplementary effect

## Cc1ccc(C(=O)Nc2ccc(S(=O)(=O)O)c3cc(S(=O)(=O)O)cc(S(=O)(=O)O)c23)cc1NC(=O)c1cccc(NC(=O)Nc2cccc(C(=O)Nc3cc(C(=O)Nc4ccc(S(=O)(=O)O)c5cc(S(=O)(=O)O)cc(S(=O)(=O)O)c45)ccc3C)c2)c1 [Suramin, 8-(3-benzamido-4-methylbenzamido)naphthalene-1, -3,5-trisulfonic acid]
[1]
  treatment of hereditary angioneurotic edema: used with success
Complement system; Clin. Exp. Immunol., 10, 127-138 (1972)
  inhibition of the complement system: competitive inhibitor of the complement system

## NC[C@H]1CC[C@H](C(=O)O)CC1 [tranexamic acid]
[1]
  treatment of hereditary angioneurotic edema: used with success

## O=C([O-])c1cc(C(=O)Nc2ccc(C(=O)[O-])c(C(=O)[O-])c2)cc(C(=O)Nc2ccc(C(=O)[O-])c(C(=O)[O-])c2)c1.[Na+].[Na+].[Na+].[Na+].[Na+] [4,4'-[5-Carboxy-1,3-phenylenebis(carbonylimino)]-diphthalic acid pentasodium salt]
[2]; Table I, two-fold serial dilution assay, sodium heparin positive control
  AC Wells: ≤ -2 Wells
[2]; Table II, in vitro
  Anti-Coagulant Activity (Wells) AC: -2 Wells
Human C1; Table I, two-fold serial dilution assay, higher well number indicates higher activity
  C1 026 Wells: +2 Wells
Human C1; Table II, in vitro
  Complement Inhibiting Activity (Wells) Code 026: +2 Wells
[3]; antilogarithm of the logarithmic (base 2) difference
  Intrinsic Therapeutic Index: 16
[3]; log base 2 difference, Code 026 minus AC
  Logarithmic Difference Expressed as Wells: +4 Wells

## heparin
Complement system
  anticomplementary effect: reported to have an anticomplementary effect

## NCCCCCC(=O)O [epsilon-aminocaproic acid]
[1]
  treatment of hereditary angioneurotic edema: used with success
